A short description of data set [1]: in vivo. The conditions noted are these: dog, iv, 2 mg/kg.
Description: Volume of distribution at steady state in dog at 2 mg/kg, iv and 13 mg/kg, po
Data set [2] is described as follows: in vivo. The conditions noted are these: dog, po, 13 mg/kg.
Description: Cmax in dog at 13 mg/kg, po
A short description of data set [3]: in vivo. To be noted: rat, iv, 2 mg/kg.
Description: Volume of distribution at steady state in rat at 2 mg/kg, iv and 5 mg/kg, po
A short description of data set [4]: in vivo. The conditions noted are these: rat, plasma, iv, 2 mg/kg.
The nature of data set [5]: physchem.
Description: Solubility of the compound
Data set [6] in a line: in vivo. To be noted: dog, iv, 2 mg/kg. The source holds these as a separate data set.
Description: Half life in dog at 2 mg/kg, iv
The nature of data set [7]: in vivo. The conditions noted are these: mouse, iv, 2 mg/kg.
Description: Half life in mouse at 2 mg/kg, iv
The nature of data set [8]: in vitro. The conditions noted are these: mouse, plasma.
Description: Fraction unbound in mouse plasma
The nature of data set [9]: in vivo. To be noted: mouse, plasma, iv, 2 mg/kg.
Data set [10] is described as follows: in vitro. To be noted: human, Caco-2.
Data set [11] in a line: in vivo. To be noted: rat, po, 5 mg/kg.
Description: Cmax in rat at 5 mg/kg, po
Data set [12] in a line: in vivo. The conditions noted are these: dog, iv, 2 mg/kg. The source holds these as a separate data set.
Data set [13] is described as follows: in vivo. To be noted: dog, po, 13 mg/kg. The source holds these as a separate data set.
Description: Half life in dog at 13 mg/kg, po
Data set [14] in a line: in vivo. To be noted: rat, po, 5 mg/kg. This is another data set of the same source.
Description: Half life in rat at 5 mg/kg, po
Data set [15] is described as follows: physchem. To be noted: octanol/water.
Description: Lipophilicity, log D of the compound
Data set [16] is described as follows: in vivo. The conditions noted are these: dog, po, 13 mg/kg. The source holds these as a separate data set.
Description: Oral bioavailability in dog at 13 mg/kg
The nature of data set [17]: in vivo. To be noted: mouse, iv, 2 mg/kg. The source holds these as a separate data set.
Description: Volume of distribution at steady state in mouse at 2 mg/kg, iv and 5 mg/kg, po
Data set [18] can be described thus: in vivo. To be noted: rat, po, 5 mg/kg. This is another data set of the same source.
Description: Oral bioavailability in rat at 5 mg/kg
Data set [19] is described as follows: in vitro. To be noted: dog, plasma.
Description: Fraction unbound in dog plasma
Data set [20] in a line: in vivo. The conditions noted are these: mouse, po, 5 mg/kg.
Description: Oral bioavailability in mouse at 5 mg/kg
A short description of data set [21]: in vivo. The conditions noted are these: mouse, po, 5 mg/kg. This is another data set of the same source.
Description: Cmax in mouse at 5 mg/kg, po
Data set [22] can be described thus: in vitro. The conditions noted are these: rat, plasma.
Description: Fraction unbound in rat plasma
The nature of data set [23]: in vitro. To be noted: dog, MDCK.
Description: Apparent permeability across apical to basolateral side in dog MDCK cells at 10 uM
The nature of data set [24]: in vivo. To be noted: rat, iv, 2 mg/kg. The source holds these as a separate data set.
Description: Half life in rat at 2 mg/kg, iv
Data set [25] is described as follows: in vitro. To be noted: human, plasma.
Description: Fraction unbound in human plasma
Data set [26] can be described thus: in vivo. The conditions noted are these: mouse, po, 5 mg/kg. The source holds these as a separate data set.
Description: Half life in mouse at 5 mg/kg, po

The values that follow come from ChEMBL document CHEMBL2010696, “Discovery, optimisation and in vivo evaluation of novel GPR119 agonists” (Bioorg Med Chem Lett, 2011).

Structures are written as SMILES. ≈ marks a conversion by molar mass, not a printed value.

By Vd is commonly meant the apparent volume that relates the amount in the body to the concentration in plasma or blood. Usually Cmax stands for the peak of the concentration-time curve. Broadly, the clearance is the rate of elimination divided by the concentration. High values mean efficient removal, low ones inefficient removal. By solubility is commonly meant the dissolved amount per volume that the medium holds. High values mean much dissolved substance, low ones little dissolved substance. For orientation: half-life means the time needed for the level to fall by half in the phase considered. Higher therefore signals slow loss. As usually defined, the fraction unbound is free concentration divided by total concentration. A higher fraction unbound goes with weak binding. One may read the Papp A→B as how fast a substance crosses the layer from the apical side. Lower therefore signals slow passage. A word on the logD: it is the decadic logarithm of the distribution of all forms, ionised or not, between an organic phase and buffer at a given pH. Low values mean lower lipophilicity, high ones higher lipophilicity. By bioavailability is commonly meant the share of a dose that reaches the circulation, judged against a reference dose that is usually intravenous. Low readings indicate poor availability, high ones good availability.

For `CN(C(=O)Cc1ccc(-n2cnnn2)cc1)C1CCN(Cc2ccc(C(F)(F)F)cc2)CC1`, the results for the distribution volume (Vd) in “in vivo [1]”, in “in vivo [3]” and in the data set “in vivo [17]” were 2.3 L/kg, 1.4 L/kg and 2 L/kg, respectively. Further, the Cmax in the data set “in vivo [2]” stood at 6.4 µM; in the data set “in vivo [11]”, 2400 nM; in “in vivo [21]”, 2200 nM. Moreover, the clearance in “in vivo [4]” is 6.8 mL/min/kg; in the data set “in vivo [9]”, 12 mL/min/kg; in “in vivo [12]” it was 1.3 mL/min/kg. Further, in “physchem [5]”, the concentration in solution (solubility) came to 18 µM (≈ 8.25 µg/mL). Also, the half-life was 1200 min in “in vivo [6]”; 132 min in “in vivo [7]”; 1080 min in “in vivo [13]”; 168 min in “in vivo [14]”; 168 min in the data set “in vivo [24]”; 144 min in “in vivo [26]”. The free fraction (fraction unbound) in “in vitro [8]” was found to be 0.099; in “in vitro [19]”, 0.068; in the data set “in vitro [22]”, 0.081; in “in vitro [25]” it was 0.076. Further, the results for the Papp A→B at 10 µM in the data set “in vitro [10]” and in “in vitro [23]” were 57 ×10⁻⁶ cm/s and 17 ×10⁻⁶ cm/s, respectively. This molecule also came in with a logD in “physchem [15]” of 3. In addition, the results for the bioavailability in the data set “in vivo [16]”, in the data set “in vivo [18]” and in “in vivo [20]” were 35%, 66% and 64%, respectively.

As for `Cc1nc(-c2ccc(CN3CCC(N(C)C(=O)Cc4ccc(-n5cnnn5)cc4)CC3)cc2)no1`, the logD in the data set “physchem [15]” was 2.1.

In the case of `CN(C(=O)Cc1ccc(-n2cnnn2)cc1)[C@H]1CCN(Cc2ccc(C(F)(F)F)cc2)C[C@H]1F`, in the data set “physchem [15]”, the logD was 3.3.

On to `CN(C(=O)Cc1ccc(-n2cnnn2)cc1)[C@@H]1CCN(Cc2ccc(C(F)(F)F)cc2)C[C@@H]1F`, for which, in “physchem [15]”, the logD came out at 3.3.

As for `CO[C@@H]1CN(Cc2ccc(C(F)(F)F)cc2)CC[C@@H]1N(C)C(=O)Cc1ccc(-n2cnnn2)cc1`, the logD in “physchem [15]” turned out to be 3.1.

On to `CO[C@H]1CN(Cc2ccc(C(F)(F)F)cc2)CC[C@H]1N(C)C(=O)Cc1ccc(-n2cnnn2)cc1`, for which the logD in the data set “physchem [15]” is 3.
